Data as given in patent publication US9980943B2, “Methods of treating muscular dystrophy” (BOARD OF REGENTS OF THE NEVADA SYSTEM OF HIGHER EDUCATION, …, priority 2013, dated 2018).

Legend:
Type in all cases: cell-based, mouse
[1] = system: α7 integrin (LacZ reporter in α7βgal+/− myoblasts); test: Myoblast α7+/LacZ integrin FDG assay (Burkin assay in myoblasts, 96-well); conditions: 96-well; for Burkin Assay in Myoblasts, signal relative to DMSO: α7+/LacZ myoblasts; for Burkin Assay in Myoblasts, value relative to DMSO: SU9516 analogs, N=3-6
[2] = system: α7 integrin (LacZ reporter in α7+/LacZ myotubes); test: Myotube α7 integrin FDG assay (Burkin assay in myotubes, 96-well); conditions: for Burkin Assay in Myotubes, value relative to DMSO: SU9516 analogs, 96-well, N=3-6
[3] = system: β-galactosidase in CMV-LacZ C2C12 myoblasts; test: CMV-LacZ secondary screen in C2C12 myoblasts (β-Gal stabilizing assay); conditions: for CMV-LACZ in Myoblasts (β-galactosidase activity relative to DMSO): CMV-LacZ C2C12 myoblasts; for CMV-LACZ in Myoblasts, value relative to DMSO: SU9516 analogs, C2C12 CMV-LacZ, N=2
In short: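 Dose-response runs at 0.5–40 μM (0.5, 1, 5, 10, 20, 40 μM; N=2 per point) used a clonal C2C12 line carrying CMV-LacZ. Cells were assayed as myoblasts or as differentiated myotubes, and β-galactosidase levels were read with the FDG fluorogenic substrate.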

[4] = system: β-galactosidase in CMV-LacZ C2C12 myotubes; test: CMV-LacZ secondary screen in C2C12 myotubes (β-Gal stabilizing assay); conditions: for CMV-LACZ in Myotubes, signal relative to DMSO: C2C12 CMV-LacZ myotubes, fold relative to DMSO; for CMV-LACZ in Myotubes, value relative to DMSO: SU9516 analogs, C2C12 CMV-LacZ, N=2
In short: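 β-Gal level was the read-out, measured in a clonal C2C12 line expressing LacZ from a CMV promoter. Dose-response curves used six concentrations, 0.5 μM up to 40 μM, with duplicate points.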

O=C1Nc2ccccc2/C1=C/c1ccccc1F [MLS001202389-01]
Burkin Assay in Myoblasts, signal relative to DMSO ([1]; 0.5 uM): 0.9323 | Burkin Assay in Myoblasts, signal relative to DMSO ([1]; 1 uM): 0.9481 | Burkin Assay in Myoblasts, signal relative to DMSO ([1]; 5 uM): 1.009 | Burkin Assay in Myoblasts, signal relative to DMSO ([1]; 10 uM): 1.1004 | Burkin Assay in Myoblasts, signal relative to DMSO ([1]; 20 uM): 0.5816 | Burkin Assay in Myoblasts, signal relative to DMSO ([1]; 40 uM): 0.2556 | Burkin Assay in Myotubes, α7 integrin LacZ reporter signal relative to DMSO ([2]; 0.5 uM): 0.9181 | Burkin Assay in Myotubes, α7 integrin LacZ reporter signal relative to DMSO ([2]; 1 uM): 0.9393 | Burkin Assay in Myotubes, α7 integrin LacZ reporter signal relative to DMSO ([2]; 5 uM): 0.9936 | Burkin Assay in Myotubes, α7 integrin LacZ reporter signal relative to DMSO ([2]; 10 uM): 1.053 | Burkin Assay in Myotubes, α7 integrin LacZ reporter signal relative to DMSO ([2]; 20 uM): 0.6412 | Burkin Assay in Myotubes, α7 integrin LacZ reporter signal relative to DMSO ([2]; 40 uM): 0.5594 | CMV-LACZ in Myoblasts (β-galactosidase activity relative to DMSO) ([3]; 0.5 uM): 1.0237 | CMV-LACZ in Myoblasts (β-galactosidase activity relative to DMSO) ([3]; 1 uM): 1.1108 | CMV-LACZ in Myoblasts (β-galactosidase activity relative to DMSO) ([3]; 5 uM): 1.0084 | CMV-LACZ in Myoblasts (β-galactosidase activity relative to DMSO) ([3]; 10 uM): 0.8920 | CMV-LACZ in Myoblasts (β-galactosidase activity relative to DMSO) ([3]; 20 uM): 0.6115 | CMV-LACZ in Myoblasts (β-galactosidase activity relative to DMSO) ([3]; 40 uM): 0.5081 | CMV-LACZ in Myotubes, signal relative to DMSO ([4]; 0.5 uM): 1.1558 | CMV-LACZ in Myotubes, signal relative to DMSO ([4]; 1 uM): 1.1821 | CMV-LACZ in Myotubes, signal relative to DMSO ([4]; 5 uM): 1.0432 | CMV-LACZ in Myotubes, signal relative to DMSO ([4]; 10 uM): 1.1312 | CMV-LACZ in Myotubes, signal relative to DMSO ([4]; 20 uM): 1.0900 | CMV-LACZ in Myotubes, signal relative to DMSO ([4]; 40 uM): 0.9311

Cc1ccc2c(c1)/C(=C/c1ccccc1C)C(=O)N2 [MLS001202402-01]
Burkin Assay in Myoblasts, value relative to DMSO ([1]; 0.5 uM): 1.051 | Burkin Assay in Myoblasts, value relative to DMSO ([1]; 1 uM): 0.9034 | Burkin Assay in Myoblasts, value relative to DMSO ([1]; 5 uM): 0.9255 | Burkin Assay in Myoblasts, value relative to DMSO ([1]; 10 uM): 1.08 | Burkin Assay in Myoblasts, value relative to DMSO ([1]; 20 uM): 0.6481 | Burkin Assay in Myoblasts, value relative to DMSO ([1]; 40 uM): 0.325 | Burkin Assay in Myotubes, value relative to DMSO ([2]; 0.5 uM): 0.9628 | Burkin Assay in Myotubes, value relative to DMSO ([2]; 1 uM): 0.8962 | Burkin Assay in Myotubes, value relative to DMSO ([2]; 5 uM): 0.9629 | Burkin Assay in Myotubes, value relative to DMSO ([2]; 10 uM): 1.0295 | Burkin Assay in Myotubes, value relative to DMSO ([2]; 20 uM): 0.5907 | Burkin Assay in Myotubes, value relative to DMSO ([2]; 40 uM): 0.3717 | CMV-LACZ in Myoblasts, value relative to DMSO ([3]; 0.5 uM): 1.0546 | CMV-LACZ in Myoblasts, value relative to DMSO ([3]; 1 uM): 1.0106 | CMV-LACZ in Myoblasts, value relative to DMSO ([3]; 5 uM): 0.8771 | CMV-LACZ in Myoblasts, value relative to DMSO ([3]; 10 uM): 0.7598 | CMV-LACZ in Myoblasts, value relative to DMSO ([3]; 20 uM): 0.7204 | CMV-LACZ in Myoblasts, value relative to DMSO ([3]; 40 uM): 0.4819 | CMV-LACZ in Myotubes, value relative to DMSO ([4]; 0.5 uM): 0.9200 | CMV-LACZ in Myotubes, value relative to DMSO ([4]; 1 uM): 0.8695 | CMV-LACZ in Myotubes, value relative to DMSO ([4]; 5 uM): 0.9237 | CMV-LACZ in Myotubes, value relative to DMSO ([4]; 10 uM): 0.8015 | CMV-LACZ in Myotubes, value relative to DMSO ([4]; 20 uM): 0.8847 | CMV-LACZ in Myotubes, value relative to DMSO ([4]; 40 uM): 0.8129

O=C1Nc2ccccc2/C1=C/c1ccccc1Cl [MLS001202425-01]
Burkin Assay in Myoblasts, value relative to DMSO ([1]; 0.5 uM): 1.2214 | Burkin Assay in Myoblasts, value relative to DMSO ([1]; 1 uM): 1.219 | Burkin Assay in Myoblasts, value relative to DMSO ([1]; 5 uM): 0.9673 | Burkin Assay in Myoblasts, value relative to DMSO ([1]; 10 uM): 0.8645 | Burkin Assay in Myoblasts, value relative to DMSO ([1]; 20 uM): 0.7465 | Burkin Assay in Myoblasts, value relative to DMSO ([1]; 40 uM): 0.3445 | Burkin Assay in Myotubes, value relative to DMSO ([2]; 0.5 uM): 1.148 | Burkin Assay in Myotubes, value relative to DMSO ([2]; 1 uM): 1.205 | Burkin Assay in Myotubes, value relative to DMSO ([2]; 5 uM): 0.9499 | Burkin Assay in Myotubes, value relative to DMSO ([2]; 10 uM): 0.8033 | Burkin Assay in Myotubes, value relative to DMSO ([2]; 20 uM): 0.5178 | Burkin Assay in Myotubes, value relative to DMSO ([2]; 40 uM): 0.354 | CMV-LACZ in Myoblasts, value relative to DMSO ([3]; 0.5 uM): 1.0625 | CMV-LACZ in Myoblasts, value relative to DMSO ([3]; 1 uM): 1.0919 | CMV-LACZ in Myoblasts, value relative to DMSO ([3]; 5 uM): 0.8675 | CMV-LACZ in Myoblasts, value relative to DMSO ([3]; 10 uM): 1.1386 | CMV-LACZ in Myoblasts, value relative to DMSO ([3]; 20 uM): 0.9081 | CMV-LACZ in Myoblasts, value relative to DMSO ([3]; 40 uM): 0.6233 | CMV-LACZ in Myotubes, value relative to DMSO ([4]; 0.5 uM): 0.8793 | CMV-LACZ in Myotubes, value relative to DMSO ([4]; 1 uM): 1.0185 | CMV-LACZ in Myotubes, value relative to DMSO ([4]; 5 uM): 1.1496 | CMV-LACZ in Myotubes, value relative to DMSO ([4]; 10 uM): 1.0423 | CMV-LACZ in Myotubes, value relative to DMSO ([4]; 20 uM): 0.9918 | CMV-LACZ in Myotubes, value relative to DMSO ([4]; 40 uM): 0.9976
